The assay concerns the target CXCR3 (Macaca fascicularis, UniProt A0A2K5UV19). In words: functional cellular assay measuring calcium flux in CXCR3 transfected cells (block of CXCR3/IP-10 interaction). The settings on record: IP-10 induced intracellular calcium flux; Cyno-CHO cells stably expressing recombinant CXCR3 and G-alpha-16; IP-10 at EC80; read-out: IC50. Format: cell-based, Cyno. A digest of the protocol:
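Cyno-CHO cells stably expressing CXCR3 and G-alpha-16, loaded with Ca-4 dye in HBSS/10 mM HEPES pH 7.4 with 2 mM probenecid for 1 h at 37° C. Compound (final 10 microM) preincubated 15 min at room temperature, then IP-10 at EC80 added; calcium flux read at 480/540 nm.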
Background: Calcium assays in cells follow changes in intracellular calcium, usually with a dye or a luminescent sensor.

Sequence of CXCR3 (A0A2K5UV19 entry or part of it): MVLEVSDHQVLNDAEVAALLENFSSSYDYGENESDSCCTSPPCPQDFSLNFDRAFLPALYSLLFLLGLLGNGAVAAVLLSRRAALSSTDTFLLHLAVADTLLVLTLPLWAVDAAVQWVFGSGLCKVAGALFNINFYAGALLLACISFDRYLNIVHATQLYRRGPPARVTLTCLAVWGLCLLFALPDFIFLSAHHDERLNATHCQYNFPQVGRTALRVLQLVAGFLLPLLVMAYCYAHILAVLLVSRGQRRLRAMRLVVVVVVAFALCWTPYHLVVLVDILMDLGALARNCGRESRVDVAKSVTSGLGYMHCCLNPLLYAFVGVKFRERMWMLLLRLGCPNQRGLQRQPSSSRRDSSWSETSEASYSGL

Usually IC50 stands for the point on the concentration scale where inhibition reaches its midpoint. Take `Cc1cc(C)n(CC(=O)N2CCN(c3ccccc3-c3cnc(Oc4ccccc4)nc3)CC2)n1` [2-(3,5-Dimethyl-pyrazol-1-yl)-1-{4-[2-(2-phenoxy-pyrimidin-5-yl)-phenyl]-piperazin-1-yl}-ethanone]: the IC50 amounted to 39 nM.

For `Cc1cc(C)n(CC(=O)N2CCN(c3ccccc3-c3cnc(N4CCCCC4)nc3)CC2)n1` [2-(3,5-Dimethyl-pyrazol-1-yl)-1-{4-[2-(2-piperidin-1-yl-pyrimidin-5-yl)-phenyl]-piperazin-1-yl}-ethanone], the concentration for half-maximal inhibition (IC50) was determined as 7 nM.

In the case of `Cc1cc(C)n(CC(=O)N2CCN(c3ccccc3-c3cnc(N4CCCC4)nc3)CC2)n1` [2-(3,5-Dimethyl-pyrazol-1-yl)-1-{4-[2-(2-pyrrolidin-1-yl-pyrimidin-5-yl)-phenyl]-piperazin-1-yl}-ethanone], the concentration for half-maximal inhibition (IC50) is 7 nM.

Regarding `COc1ccc(-c2ccccc2N2CCN(C(=O)Cn3nc(C)cc3C)CC2)cn1` [2-(3,5-Dimethyl-pyrazol-1-yl)-1-{4-[2-(6-methoxy-pyridin-3-yl)-phenyl]-piperazin-1-yl}-ethanone], the IC50 was 58 nM.

On to `COc1ncc(-c2cc(F)ccc2N2CCN(C(=O)Cn3nc(C)cc3C)CC2)cn1` [2-(3,5-Dimethyl-pyrazol-1-yl)-1-{4-[4-fluoro-2-(2-methoxy-pyrimidin-5-yl)-phenyl]-piperazin-1-yl}-ethanone], for which the 50% inhibitory concentration (IC50) turned out to be 14 nM.

On to `Cc1cc(C)n(CC(=O)N2CCN(c3ccc(F)cc3-c3cnc(N4CCOCC4)nc3)CC2)n1` [2-(3,5-Dimethyl-pyrazol-1-yl)-1-{4-[4-fluoro-2-(2-morpholin-4-yl-pyrimidin-5-yl)-phenyl]-piperazin-1-yl}-ethanone], for which the IC50 came out at 5 nM.

With `Cc1cc(C)n(CC(=O)N2CCN(c3ccc(C(F)(F)F)cc3-c3cnc(S(C)(=O)=O)nc3)CC2C)n1` (centres unmarked) [2-(3,5-dimethyl-1H-pyrazol-1-yl)-1-(2-methyl-4-{2-[2-(methylsulfonyl)pyrimidin-5-yl]-4-(trifluoromethyl)phenyl}piperazin-1-yl)ethanone], the half-maximal inhibitory concentration (IC50) turned out to be 56 nM.

In the case of `Cc1cc(C)n(CC(=O)N2CCN(c3ccc(C(F)(F)F)cc3-c3cnc(N4CCC(O)CC4)nc3)CC2C)n1` (centres unmarked) [2-(3,5-dimethyl-1H-pyrazol-1-yl)-1-(4-{2-[2-(4-hydroxypiperidin-1-yl)pyrimidin-5-yl]-4-(trifluoromethyl)phenyl}-2-methylpiperazin-1-yl)ethanone], the IC50 was 8 nM.

With `Cc1cc(C)n(CC(=O)N2CCN(c3ccccc3-c3cnc(N4CCC(O)CC4)nc3)CC2C)n1` (centres unmarked) [2-(3,5-dimethyl-1H-pyrazol-1-yl)-1-(4-{2-[2-(4-hydroxypiperidin-1-yl)pyrimidin-5-yl]phenyl}-2-methylpiperazin-1-yl)ethanone], the IC50 is 13 nM.

Consider `Cc1cc(C)n(CC(=O)N2CCN(c3ccc(F)cc3-c3cnc(N4CCC(O)CC4)nc3)CC2)n1` [2-(3,5-dimethyl-1H-pyrazol-1-yl)-1-(4-{4-fluoro-2-[2-(4-hydroxypiperidin-1-yl)pyrimidin-5-yl]phenyl}piperazin-1-yl)ethanone], for which the concentration for half-maximal inhibition (IC50) worked out at 9 nM.

As to `Cc1cc(C)n(CC(=O)N2CCN(c3ccc(F)cc3-c3cnc(N4CCN(C)CC4)nc3)CC2)n1` [2-(3,5-dimethyl-1H-pyrazol-1-yl)-1-(4-{4-fluoro-2-[2-(4-methylpiperazin-1-yl)pyrimidin-5-yl]phenyl}piperazin-1-yl)ethanone], the IC50 was found to be 40 nM.

Consider `Cc1cc(C)n(CC(=O)N2CCN(c3ccc(F)cc3-c3cnc(S(C)(=O)=O)nc3)CC2C)n1` (centres unmarked) [2-(3,5-dimethyl-1H-pyrazol-1-yl)-1-(4-{4-fluoro-2-[2-(methylsulfonyl)pyrimidin-5-yl]phenyl}-2-methylpiperazin-1-yl)ethanone], for which the IC50 was determined as 157 nM.

Turning to `Cc1cc(C)n(CC(=O)N2CCN(c3ccc(F)cc3-c3cnc(S(C)(=O)=O)nc3)CC2)n1` [2-(3,5-dimethyl-1H-pyrazol-1-yl)-1-(4-{4-fluoro-2-[2-(methylsulfonyl)pyrimidin-5-yl]phenyl}piperazin-1-yl)ethanone], the 50% inhibitory concentration (IC50) worked out at 278 nM.

On to `Cc1cc(C)n(CC(=O)N2CCN(c3ccc(F)cc3-c3cnc(N4CCCC4)nc3)CC2)n1` [2-(3,5-dimethyl-1H-pyrazol-1-yl)-1-(4-{4-fluoro-2-[2-(pyrrolidin-1-yl)pyrimidin-5-yl]phenyl}piperazin-1-yl)ethanone], for which the IC50 amounted to 16 nM.

For `Cc1cc(C)n(CC(=O)N2CCN(c3ccccc3-c3cnc(N4CCC(S(C)(=O)=O)CC4)nc3)CC2C)n1` (centres unmarked) [2-(3,5-dimethyl-1H-pyrazol-1-yl)-1-[2-methyl-4-(2-{2-[4-(methylsulfonyl)piperidin-1-yl]pyrimidin-5-yl}phenyl)piperazin-1-yl]ethanone], the IC50 came out at 9 nM.

For `Cc1cc(C)n(CC(=O)N2CCN(c3ccc(F)cc3-c3cnc(N4CCC(S(C)(=O)=O)CC4)nc3)CC2C)n1` (centres unmarked) [2-(3,5-dimethyl-1H-pyrazol-1-yl)-1-[4-(4-fluoro-2-{2-[4-(methylsulfonyl)piperidin-1-yl]pyrimidin-5-yl}phenyl)-2-methylpiperazin-1-yl]ethanone], the 50% inhibitory concentration (IC50) is 10 nM.

With `Cc1cc(C)n(CC(=O)N2CCN(c3ccc(F)cc3-c3cnc(N4CCC(S(C)(=O)=O)CC4)nc3)CC2)n1` [2-(3,5-dimethyl-1H-pyrazol-1-yl)-1-[4-(4-fluoro-2-{2-[4-(methylsulfonyl)piperidin-1-yl]pyrimidin-5-yl}phenyl)piperazin-1-yl]ethanone], the half-inhibitory concentration (IC50) came out at 11 nM.

Consider `Cc1cc(C)n(CC(=O)N2CCN(c3ccc(C(F)(F)F)cc3-c3cnc(N4CCC(S(C)(=O)=O)CC4)nc3)CC2C)n1` (centres unmarked) [2-(3,5-dimethyl-1H-pyrazol-1-yl)-1-{2-methyl-4-[2-{2-[4-(methylsulfonyl)piperidin-1-yl]pyrimidin-5-yl}-4-(trifluoromethyl)phenyl]piperazin-1-yl}ethanone], for which the IC50 was 7 nM.

For the compound `CC1CN(c2ccc(C(F)(F)F)cc2-c2cnc(S(C)(=O)=O)nc2)CCN1C(=O)Cn1cnc2cccnc21` (centres unmarked) [2-(3H-imidazo[4,5-b]pyridin-3-yl)-1-(2-methyl-4-{2-[2-(methylsulfonyl)pyrimidin-5-yl]-4-(trifluoromethyl)phenyl}piperazin-1-yl)ethanone], the IC50 was found to be 189 nM.

Take `CC1CN(c2ccccc2-c2cnc(S(C)(=O)=O)nc2)CCN1C(=O)Cn1cnc2cccnc21` (centres unmarked) [2-(3H-imidazo[4,5-b]pyridin-3-yl)-1-(2-methyl-4-{2-[2-(methylsulfonyl)pyrimidin-5-yl]phenyl}piperazin-1-yl)ethanone]: the half-inhibitory concentration (IC50) is 434 nM.

On to `CC1CN(c2ccccc2-c2cnc(N3CCC(S(C)(=O)=O)CC3)nc2)CCN1C(=O)Cn1cnc2cccnc21` (centres unmarked) [2-(3H-imidazo[4,5-b]pyridin-3-yl)-1-[2-methyl-4-(2-{2-[4-(methylsulfonyl)piperidin-1-yl]pyrimidin-5-yl}phenyl)piperazin-1-yl]ethanone], for which the IC50 was found to be 14 nM.

With `CC1CN(c2ccc(C(F)(F)F)cc2-c2cnc(N3CCC(S(C)(=O)=O)CC3)nc2)CCN1C(=O)Cn1cnc2cccnc21` (centres unmarked) [2-(3H-imidazo[4,5-b]pyridin-3-yl)-1-{2-methyl-4-[2-{2-[4-(methylsulfonyl)piperidin-1-yl]pyrimidin-5-yl}-4-(trifluoromethyl)phenyl]piperazin-1-yl}ethanone], the half-maximal inhibitory concentration (IC50) amounted to 7 nM.

For `COc1ncc(-c2ccccc2N2CCN(C(=O)Cn3nc(C)c(Cl)c3C)CC2)cn1` [2-(4-Chloro-3,5-dimethyl-pyrazol-1-yl)-1-{4-[2-(2-methoxy-pyrimidin-5-yl)-phenyl]-piperazin-1-yl}-ethanone], the 50% inhibitory concentration (IC50) turned out to be 10 nM.

For `COc1ncc(-c2ccccc2N2CCN(C(=O)Cn3ccc4c(Cl)ncnc43)CC2)cn1` [2-(4-Chloro-pyrrolo[2,3-d]pyrimidin-7-yl)-1-{4-[2-(2-methoxy-pyrimidin-5-yl)-phenyl]-piperazin-1-yl}-ethanone], the IC50 was determined as 48 nM.

On to `COc1ncc(-c2ccccc2N2CCN(C(=O)Cn3ccc4cc(F)cnc43)CC2)cn1` [2-(5-Fluoro-pyrrolo[2,3-b]pyridin-1-yl)-1-{4-[2-(2-methoxy-pyrimidin-5-yl)-phenyl]-piperazin-1-yl}-ethanone], for which the IC50 is 8 nM.

On to `COc1ncc(-c2ccccc2N2CCN(C(=O)Cn3ccc4ccnc(Cl)c43)CC2)cn1` [2-(7-Chloro-pyrrolo[2,3-c]pyridin-1-yl)-1-{4-[2-(2-methoxy-pyrimidin-5-yl)-phenyl]-piperazin-1-yl}-ethanone], for which the IC50 worked out at 16 nM.

For the compound `COc1ncc(-c2ccccc2N2CCN(C(=O)Cn3cnc4cccnc43)CC2)cn1` [2-Imidazo[4,5-b]pyridin-3-yl-1-{4-[2-(2-methoxy-pyrimidin-5-yl)-phenyl]-piperazin-1-yl}-ethanone], the half-maximal inhibitory concentration (IC50) is 15 nM.

As to `COc1ncc(-c2ccccc2N2CCN(C(=O)Cn3ncc4ccccc43)CC2)cn1` [2-Indazol-1-yl-1-{4-[2-(2-methoxy-pyrimidin-5-yl)-phenyl]-piperazin-1-yl}-ethanone], the concentration for half-maximal inhibition (IC50) is 35 nM.

For `COc1ncc(-c2ccccc2N2CCN(C(=O)Cn3cc4ccccc4n3)CC2)cn1` [2-Indazol-2-yl-1-{4-[2-(2-methoxy-pyrimidin-5-yl)-phenyl]-piperazin-1-yl}-ethanone], the IC50 is 28 nM.

Take `COc1ncc(-c2ccccc2N2CCN(C(=O)Cn3ccc4ccccc43)CC2)cn1` [2-Indol-1-yl-1-{4-[2-(2-methoxy-pyrimidin-5-yl)-phenyl]-piperazin-1-yl}-ethanone]: the concentration for half-maximal inhibition (IC50) amounted to 44 nM.

For `CC1CN(c2ccc(C(F)(F)F)cc2-c2cnc(S(C)(=O)=O)nc2)CCN1C(=O)CN1Cc2ccccc2C1=O` (centres unmarked) [2-[2-(2-methyl-4-{2-[2-(methylsulfonyl)pyrimidin-5-yl]-4-(trifluoromethyl)phenyl}piperazin-1-yl)-2-oxoethyl]-2,3-dihydro-1H-isoindol-1-one], the concentration for half-maximal inhibition (IC50) is 101 nM.

Turning to `CC1CN(c2ccccc2-c2cnc(S(C)(=O)=O)nc2)CCN1C(=O)CN1Cc2ccccc2C1=O` (centres unmarked) [2-[2-(2-methyl-4-{2-[2-(methylsulfonyl)pyrimidin-5-yl]phenyl}piperazin-1-yl)-2-oxoethyl]-2,3-dihydro-1H-isoindol-1-one], the half-maximal inhibitory concentration (IC50) was determined as 293 nM.

Values taken from patent publication US8450317B2, “CXCR3 receptor antagonists” (Boehringer Ingelheim International GmbH, priority 2009, dated 2013).
